Experimental data from the NIST ThermoML archive (doi:10.1021/je050416y).
± gives the expanded uncertainty stated by the source.

Key:
[1] = 101 kPa, Liquid; for mass density: Vibrating tube method
[2] = xn = mol fraction of the nth substance listed; conditions: 101 kPa, Liquid, x2 = 0; for mass density: Vibrating tube method

| Compound | kinematic viscosity ([1]; 293.15 K) | mass density ([1]; 293.15 K) | kinematic viscosity ([1]; 298.15 K) | mass density ([1]; 298.15 K) | kinematic viscosity ([1]; 303.15 K) | mass density ([1]; 303.15 K) | kinematic viscosity ([1]; 308.15 K) | mass density ([1]; 308.15 K) | kinematic viscosity ([1]; 313.15 K) | mass density ([1]; 313.15 K) | kinematic viscosity ([1]; 318.15 K) | mass density ([1]; 318.15 K) | kinematic viscosity ([1]; 323.15 K) | mass density ([1]; 323.15 K) | mass density ([2]; 293.15 K) | kinematic viscosity ([2]; 293.15 K) | mass density ([2]; 298.15 K) | kinematic viscosity ([2]; 298.15 K) | mass density ([2]; 303.15 K) | kinematic viscosity ([2]; 303.15 K) | further results |
| --- | --- | --- | --- | --- | --- | --- | --- | --- | --- | --- | --- | --- | --- | --- | --- | --- | --- | --- | --- | --- | --- |
| CCC(C)CO (stereo not drawn) [2-methyl-1-butanol] | 6.11e-06 ± 2.5e-07 m2/s | 817.6 ± 1 kg/m3 | 5.34e-06 ± 2.3e-07 m2/s | 814.1 ± 1 kg/m3 | 4.69e-06 ± 2e-07 m2/s | 810.5 ± 1 kg/m3 | 4.08e-06 ± 1.8e-07 m2/s | 807.1 ± 1 kg/m3 | 3.54e-06 ± 1.6e-07 m2/s | 803.6 ± 1 kg/m3 | 3.09e-06 ± 1.4e-07 m2/s | 800.1 ± 1 kg/m3 | 2.72e-06 ± 1.2e-07 m2/s | 796.6 ± 1 kg/m3 |  |  |  |  |  |  |  |
| CCC(C)(C)O [2-methylbutan-2-ol] | 5.11e-06 ± 2.2e-07 m2/s | 813.9 ± 1 kg/m3 | 4.47e-06 ± 2e-07 m2/s | 810.5 ± 1 kg/m3 | 3.91e-06 ± 1.7e-07 m2/s | 807 ± 1 kg/m3 | 3.39e-06 ± 1.5e-07 m2/s | 803.5 ± 1 kg/m3 | 2.91e-06 ± 1.3e-07 m2/s | 800 ± 1 kg/m3 | 2.52e-06 ± 1.1e-07 m2/s | 796.6 ± 1 kg/m3 | 2.09e-06 ± 9.6e-08 m2/s | 793.3 ± 1 kg/m3 |  |  |  |  |  |  |  |
| CC(C)CCO [3-methylbutan-1-ol] | 5e-06 ± 2.2e-07 m2/s | 808.3 ± 1 kg/m3 | 4.35e-06 ± 1.9e-07 m2/s | 804.6 ± 1 kg/m3 | 3.81e-06 ± 1.7e-07 m2/s | 800.8 ± 1 kg/m3 | 3.33e-06 ± 1.5e-07 m2/s | 797.1 ± 1 kg/m3 | 2.94e-06 ± 1.3e-07 m2/s | 793.2 ± 1 kg/m3 | 2.59e-06 ± 1.2e-07 m2/s | 789.5 ± 1 kg/m3 | 2.29e-06 ± 1e-07 m2/s | 785.7 ± 1 kg/m3 |  |  |  |  |  |  |  |
| CCO [ethanol] | 1.52e-06 ± 7.2e-08 m2/s | 789.7 ± 1 kg/m3 | 1.39e-06 ± 6.6e-08 m2/s | 785.3 ± 1 kg/m3 | 1.23e-06 ± 5.9e-08 m2/s | 780.9 ± 1 kg/m3 | 1.13e-06 ± 5.5e-08 m2/s | 776.5 ± 1 kg/m3 | 1.02e-06 ± 5.1e-08 m2/s | 772.2 ± 1 kg/m3 | 9.4e-07 ± 4.7e-08 m2/s | 767.9 ± 1 kg/m3 | 8.28e-07 ± 4.2e-08 m2/s | 763.5 ± 1 kg/m3 |  |  |  |  |  |  |  |
| CCO [ethanol] + CC(C)CCO |  |  |  |  |  |  |  |  |  |  |  |  |  |  | 789.7 ± 1 kg/m3 | 1.52e-06 ± 7.2e-08 m2/s | 785.3 ± 1 kg/m3 | 1.39e-06 ± 6.6e-08 m2/s | 780.9 ± 1 kg/m3 | 1.23e-06 ± 5.9e-08 m2/s | mass density ([2]; 308.15 K): 776.5 ± 1 kg/m3; kinematic viscosity ([2]; 308.15 K): 1.13e-06 ± 5.5e-08 m2/s; mass density ([2]; 313.15 K): 772.2 ± 1 kg/m3; kinematic viscosity ([2]; 313.15 K): 1.02e-06 ± 5.1e-08 m2/s; mass density ([2]; 318.15 K): 767.9 ± 1 kg/m3; kinematic viscosity ([2]; 318.15 K): 9.4e-07 ± 4.7e-08 m2/s; mass density ([2]; 323.15 K): 763.5 ± 1 kg/m3; kinematic viscosity ([2]; 323.15 K): 8.28e-07 ± 4.2e-08 m2/s |
| CCO [ethanol] + CCC(C)(C)O |  |  |  |  |  |  |  |  |  |  |  |  |  |  | 789.7 ± 1 kg/m3 | 1.52e-06 ± 7.2e-08 m2/s | 785.3 ± 1 kg/m3 | 1.39e-06 ± 6.6e-08 m2/s | 780.9 ± 1 kg/m3 | 1.23e-06 ± 5.9e-08 m2/s | mass density ([2]; 308.15 K): 776.5 ± 1 kg/m3; kinematic viscosity ([2]; 308.15 K): 1.13e-06 ± 5.5e-08 m2/s; mass density ([2]; 313.15 K): 772.2 ± 1 kg/m3; kinematic viscosity ([2]; 313.15 K): 1.02e-06 ± 5.1e-08 m2/s; mass density ([2]; 318.15 K): 767.9 ± 1 kg/m3; kinematic viscosity ([2]; 318.15 K): 9.4e-07 ± 4.7e-08 m2/s; mass density ([2]; 323.15 K): 763.5 ± 1 kg/m3; kinematic viscosity ([2]; 323.15 K): 8.28e-07 ± 4.2e-08 m2/s |
| CCO [ethanol] + CCC(C)CO |  |  |  |  |  |  |  |  |  |  |  |  |  |  | 789.7 ± 1 kg/m3 | 1.52e-06 ± 7.2e-08 m2/s | 785.3 ± 1 kg/m3 | 1.39e-06 ± 6.6e-08 m2/s | 780.9 ± 1 kg/m3 | 1.23e-06 ± 5.9e-08 m2/s | mass density ([2]; 308.15 K): 776.5 ± 1 kg/m3; kinematic viscosity ([2]; 308.15 K): 1.13e-06 ± 5.5e-08 m2/s; mass density ([2]; 313.15 K): 772.2 ± 1 kg/m3; kinematic viscosity ([2]; 313.15 K): 1.02e-06 ± 5.1e-08 m2/s; mass density ([2]; 318.15 K): 767.9 ± 1 kg/m3; kinematic viscosity ([2]; 318.15 K): 9.4e-07 ± 4.7e-08 m2/s; mass density ([2]; 323.15 K): 763.5 ± 1 kg/m3; kinematic viscosity ([2]; 323.15 K): 8.28e-07 ± 4.2e-08 m2/s |
